Test results reported in patent publication US20200254211A1, “STRESS RELIEVING DEVICE FOR VEHICLES” (DENSO CORPORATION, priority 2015, published 2020).

Columns and labels:
[1] = test system: α-II waves and θ waves in the brain; experiment: human brain waves recorded in an environment where cedrol is volatilized (FIG. 3); type: in vivo
Method: Further, from the start of volatilization of cedrol and until cedrol concentration reaches 300 μg/m^3, the activity voltage of α-II waves is greater than that of θ waves, and it is understood that this is suitable for relaxing a person. Further, once cedrol concentration exceeds 300 μg/m^3, the activity voltage of […] is greater than that of α-II waves, and it is understood that this is suitable for promoting sleepiness in a person.

parasympathetic nerves = experiment: parasympathetic nerve state with respect to cedrol concentration (FIG. 4); type: in vivo, human
Method: Then, once cedrol concentration exceeds 300 μg/m^3, due to excessive relaxation, sleepiness is promoted.

[2] = test system: parasympathetic nerve state (relaxation state) of test subjects; experiment: stress substitution experiment (FIG. 6); type: in vivo, human; conditions: average of six test subjects, cedrol in diethylene glycol monobutyl ether
Excerpt: In this experiment, instead of actual driving, a stress substitution experiment is applied to confirm effects. The stress substitution experiment may be, for example, repetitively performing simple calculations, handling heavy objects with difficult posture, etc.
In the above stress substitution experiment, with respect to an initial state, the parasympathetic nerve state (relaxation state) of the test subjects decreases when stressed. […] In other words, it is possible for a mixture solvent of cedrol is change an irritated state to a relaxed state.

humans = conditions: general statement; cited from earlier work

C[C@@H]1CC[C@H]2C(C)(C)[C@H]3C[C@@]12CC[C@@]3(C)O [cedrol]
cedrol concentration at which activity voltage of α-II waves is greater than that of θ waves (suitable for relaxing) ([1]; from the start of volatilization): ≤ 300 μg/m^3
activity voltages of α-II waves (relaxation) and θ waves (falling asleep) ([1]; human brain waves, volatilized cedrol, with rising concentration): both increase as the concentration of cedrol increases
cedrol concentration at which activity voltage of θ waves is greater than that of α-II waves (promoting sleepiness) ([1]; volatilized cedrol in air): exceeds 300 μg/m^3
lower limit of cedrol for exhibiting a relaxation effect (parasympathetic nerves; volatilization amount in vehicle cabin): 0.5 μg/m^3
cedrol concentration at which sleepiness is promoted due to excessive relaxation (parasympathetic nerves; volatilized cedrol in air): exceeds 300 μg/m^3
parasympathetic nerve state with increasing cedrol concentration (parasympathetic nerves; volatilized cedrol in air): parasympathetic nerves become significant
parasympathetic nerve state (relaxation state) after release of mixture solvent vapor to stressed test subjects [2]: increases to above the initial state
physiological effects in humans (humans): lowering heat rate, respiratory rate, blood pressure, etc. in humans, and also increasing α-II waves in the brain
